In data set [1] the target is T1, uPAR-expressing HEC-265 human endometrial adenocarcinoma cells (Homo sapiens, UniProt Q03405).
T1 construct: Cell surface uPAR-expressing HEC-265 human endometrial adenocarcinoma cells; host or cells: HEC-265
As to the kind of experiment: Competitive FACS binding assay. As to conditions: pIC50 category of FACS binding. The gist of the method:
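Competitive displacement of a 10 nM biotinylated peptide from HEC-265 cells (1 h, 4 °C, PBS/1% BSA), detected via APC-streptavidin by flow cytometry. pIC50 from four-parameter logistic fit of median fluorescence versus concentration.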
For orientation: In flow cytometry, cells or beads pass a laser one at a time.

Data set [2] can be described thus: Plasma stability assay (mouse plasma). The data set is classed as in vitro ADME. As to conditions: mouse plasma (sodium citrate 3.7%), 37°C, LC-MS quantification, read-out: % intact compound remaining after 6h incubation Mouse plasma. The gist of the method: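 Compound from a 0.5 mM DMSO stock was spiked into sodium-citrate human or mouse plasma and incubated at 37°C for 0 and 6 h in duplicate. After protein precipitation with internal standard, intact compound was quantified by UHPLC-Q-TOF MS (positive ESI) against matrix calibration, reported as % remaining after 6 h.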

Data set [3] in a line: Plasma stability assay (human plasma). The format is in vitro ADME. As to conditions: human plasma (sodium citrate 3.7%), 37°C, LC-MS quantification, read-out: % intact compound remaining after 6h incubation Human plasma. Here is the method:
In order to determine the stability of selected compounds of the invention in human and mouse plasma, a plasma stability assay was carried out. Such plasma stability assay measures degradation of compounds of the present invention in blood plasma. This is an important characteristic of a compound as compounds, with the exception of pro-drugs, which rapidly degrade in plasma, generally show poor in vivo efficacy. […] The stability is sufficient for the diagnostic, therapeutic and theragnostic use of these compounds according to the present invention.
The plasma stability samples were prepared by spiking 50 µl plasma aliquots (all sodium citrate 3.7%) with 1 µl of a 0.5 mM compound stock solution in DMSO. After vortexing the samples were incubated in a Thermomixer at 37°C for 0 and 6 hours. After incubation the samples were stored on ice until further treatment. All samples were prepared in duplicates.
A suitable internal standard was added to each sample (1 µl of a 0.5 mM stock solution in DMSO). Protein precipitation was performed using two different methods depending on the compound conditions as indicated in Table 13. • A) 250 µl of acetonitrile containing 1% trifluoroacetic acid was added. […]
Quantitation was performed by external matrix calibration with internal standard using the integrated analyte signals.
Additionally, recovery was determined by spiking a pure plasma sample that only contained the internal standard after treatment with a certain amount of the compound.
Carry-over was evaluated by analysis of a blank sample (20% acetonitrile) after the highest calibration sample.
The result is stated as "% intact compound remaining after 6 h incubation" and means that from the amount of material at the start of the experiment the stated percentage is detected as unchanged material at the end of the experiment by LC-MS quantification. […]

Where a SMILES comes first, the peptide text is derived from it. Bridges are numbered along the chain shown (N, C = ends). [ ]: non-standard residue; d: D form. The star is where a group is joined. DOTA = O=C(O)CN1CCN(CC(=O)O)CCN(CC(=O)*)CCN(CC(=O)O)CC1; Phe(4-CONH2) = NC(=O)c1ccc(C[C@H](N)C(=O)O)cc1; Pro(cis-4-F) = O=C(O)[C@@H]1C[C@H](F)CN1; Hyp = O=C(O)[C@@H]1C[C@@H](O)CN1; Pentanoyl(4-Me) = CC(C)CCC(=O)*; Cit = NC(=O)NCCC[C@H](N)C(=O)O; Butoxycarbonyl = CCCCOC(=O)*; Orn = NCCC[C@H](N)C(=O)O; Nva = CCC[C@H](N)C(=O)O; Pentanoyl = CCCCC(=O)*

T1 sequence (Q03405 23-335): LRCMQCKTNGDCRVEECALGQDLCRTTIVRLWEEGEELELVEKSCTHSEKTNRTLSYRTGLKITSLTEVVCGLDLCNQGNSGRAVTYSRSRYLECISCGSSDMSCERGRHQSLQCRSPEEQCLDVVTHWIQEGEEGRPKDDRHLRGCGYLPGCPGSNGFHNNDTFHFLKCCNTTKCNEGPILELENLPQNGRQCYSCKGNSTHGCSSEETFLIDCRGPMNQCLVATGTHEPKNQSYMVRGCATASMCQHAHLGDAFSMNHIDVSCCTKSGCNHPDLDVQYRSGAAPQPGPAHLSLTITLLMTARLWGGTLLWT

Consider `CCCCOC(=O)N[C@H]1CSSC[C@@H](C(N)=O)NC(=O)[C@H](CCC)NC(=O)[C@H]([C@@H](C)CC)NC(=O)[C@@H]2C[C@@H](O)CN2C(=O)[C@@H]2C[C@H](F)CN2C(=O)[C@H](Cc2ccccc2)NC(=O)[C@H](Cc2ccc(C(N)=O)cc2)NC(=O)[C@H](CCCNC(=O)CN2CCN(CC(=O)O)CCN(CC(=O)O)CCN(CC(=O)O)CC2)NC(=O)[C@H]([C@@H](C)O)NC1=O` [UPAR-276, Butoc-[Cys-Thr-Orn(DOTA)-Pcnf-Phe-4Cfp-Hyp-Ile-Nva-Cys]-NHz] (Butoxycarbonyl-CT[Orn](DOTA)[Phe(4-CONH2)]F[Pro(cis-4-F)][Hyp]I[Nva]C-NH2; disulfide 1-10), for which the concentration for half-maximal inhibition (IC50) (in general, the concentration that inhibits the measured activity by half) in data set [1] is no more than 0.01 µM. For the same molecule, the amount remaining (usually what is left of the initial amount, in per cent) at 6 h, 9.8 µM is 89% in data set [2] and greater than 95% in data set [3].
Turning to `CCCCC(=O)N[C@H]1CSSC[C@@H](C(N)=O)NC(=O)[C@H](CCC)NC(=O)[C@H]([C@@H](C)CC)NC(=O)[C@@H]2C[C@@H](O)CN2C(=O)[C@@H]2C[C@@H](O)CN2C(=O)[C@H](Cc2ccccc2)NC(=O)[C@H](Cc2ccc(O)cc2)NC(=O)[C@H](CCCCNC(=O)CN2CCN(CC(=O)O)CCN(CC(=O)O)CCN(CC(=O)O)CC2)NC(=O)[C@H](CCCNC(N)=O)NC1=O` [UPAR-403, Pent-[Cys-Cit-Lys(DOTA)-Tyr-Phe-Hyp-Hyp-Ile-Nva-Cys]-NH2] (Pentanoyl-C[Cit]K(DOTA)YF[Hyp][Hyp]I[Nva]C-NH2; disulfide 1-10), in data set [1], the IC50 was no more than 0.01 µM. Besides, the amount remaining at 6 h, 9.8 µM in data set [2] turned out to be 87%.
In data set [1], `CC[C@H](C)[C@@H]1NC(=O)[C@@H](C)NC(=O)[C@@H]2CCCN2C(=O)[C@H](Cc2ccccc2)NC(=O)[C@H](Cc2ccc(O)cc2)NC(=O)[C@H](CC(=O)O)NC(=O)[C@H](CCCNC(N)=O)NC(=O)[C@@H](NC(=O)CCC(C)C)CSSC[C@@H](C(N)=O)NC(=O)[C@H](CC(C)C)NC1=O` [UPAR-434, iHex-[Cys-Cit-Asp-Tyr-Phe-Pro-ala-Ile-Leu-Cys]-NH2] ({Pentanoyl(4-Me)}-C[Cit]DYFP[dA]ILC-NH2; disulfide 1-10) had a half-inhibitory concentration (IC50) of no more than 0.01 µM. Also, the share remaining at 6 h, 9.8 µM in data set [2] worked out at 90%.
As for `CC[C@H](C)[C@@H]1NC(=O)[C@@H](C)NC(=O)[C@@H]2CCCN2C(=O)[C@H](Cc2ccccc2)NC(=O)[C@H](Cc2ccc(O)cc2)NC(=O)[C@H](CCC(N)=O)NC(=O)[C@H](CCCNC(N)=O)NC(=O)[C@@H](NC(=O)[C@H](CC(C)C)NC(=O)CN2CCN(CC(=O)O)CCN(CC(=O)O)CCN(CC(=O)O)CC2)CSSC[C@@H](C(N)=O)NC(=O)[C@H](CC(C)C)NC1=O` [UPAR-441, DOTA-Leu-[Cys-Cit-Gln-Tyr-Phe-Pro-ala-Ile-Leu-Cys]-NH2] ({DOTA}-LC[Cit]QYFP[dA]ILC-NH2; disulfide 2-11), in data set [1], the 50% inhibitory concentration (IC50) is 0.0398 to 0.1 µM. Further, the share remaining at 6 h, 9.8 µM in data set [2] was 83%.

The record behind these values is patent publication EP4610269A1, “UROKINASE PLASMINOGEN ACTIVATOR SURFACE RECEPTOR (UPAR) LIGANDS FOR DIAGNOSTIC OR THERAPEUTIC USE” (3B Pharmaceuticals GmbH, priority 2024, dated 2025).
